Laboratory results published in ChEMBL document CHEMBL1128746, “Aminoalkylindoles: structure-activity relationships of novel cannabinoid mimetics” (J Med Chem, 1995).

Key:
[1] = organism: Mus musculus; test: Concentration required to inhibit electrically induced contractions in isolated mouse vas deferens preparation in vitro; type: functional
[2] = molecular target: Cannabinoid receptor 1 (Rattus norvegicus, UniProt P20272); test: […] [3H]WIN-55212 binding to Cannabinoid receptor 1 in rat cerebellum membranes.; type: cell membranes, Membrane
Cannabinoid receptor 1, sequence (P20272 whole entry): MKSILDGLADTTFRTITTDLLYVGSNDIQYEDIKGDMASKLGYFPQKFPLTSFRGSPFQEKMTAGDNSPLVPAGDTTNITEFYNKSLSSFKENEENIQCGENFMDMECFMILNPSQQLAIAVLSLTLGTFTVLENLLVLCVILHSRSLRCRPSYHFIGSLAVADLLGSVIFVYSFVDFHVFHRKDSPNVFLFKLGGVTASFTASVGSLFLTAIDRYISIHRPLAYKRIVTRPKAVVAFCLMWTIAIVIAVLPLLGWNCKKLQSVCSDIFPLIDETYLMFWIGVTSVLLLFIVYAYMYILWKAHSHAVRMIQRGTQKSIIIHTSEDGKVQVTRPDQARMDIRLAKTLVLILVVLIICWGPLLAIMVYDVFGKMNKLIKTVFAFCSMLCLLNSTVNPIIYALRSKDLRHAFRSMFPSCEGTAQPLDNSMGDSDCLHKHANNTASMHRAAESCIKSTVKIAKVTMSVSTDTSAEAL

Structure (SMILES) | IC50 ([1]; Mus musculus) | IC50 [2] | IC50 [1]
COc1ccc(C(=O)c2c(C)n(CCN3CCNCC3)c3ccccc23)cc1 | > 10000 nM |  | 
Cc1c(C(=O)c2c3ccccc3cc3ccccc23)c2ccccc2n1CCN1CCOCC1 | > 10000 nM |  | 
COc1ccc(C(=O)c2c(C)[nH]c3ccccc23)cc1 | 27 nM |  | 
Cc1c(C(=O)c2ccc3ccccc3c2)c2ccccc2n1CCN1CCOCC1 | 50 nM | 128 nM | 
CCCc1ccc(C(=O)c2c(C)n(CCN3CCOCC3)c3ccccc23)cc1 |  | 1130 nM | 
CC(CN1CCOCC1)n1cc(C(=O)c2cccc3ccccc23)c2ccccc21 (racemic; form 2) |  |  | 19 nM
CC(CN1CCOCC1)n1cc(C(=O)c2cccc3ccccc23)c2ccccc21 (racemic; form 1) |  | 114 nM | 60 nM
Cc1c(C(=O)c2cccc3ccccc23)c2ccccc2n1C(C)CN1CCOCC1 (racemic; form 1) |  |  | 56 nM
Cc1c(C(=O)c2cccc3ccccc23)c2ccccc2n1CCN1CCOCC1C (stereo not given) | 207 nM | 384 nM | 
O=C(c1cccc2occc12)c1cn(CCN2CCOCC2)c2ccccc12 | 7.7 nM | 24 nM | 
CCc1c(C(=O)c2ccc(OC)cc2)c2ccccc2n1CCN1CCOCC1 | > 10000 nM |  | 
COc1ccc(C(=O)c2c(C)n(CCN3CCOCC3)c3cc(C)ccc23)cc1 | > 10000 nM | 1880 nM | 
Cc1c(C(=O)c2ccc(C#N)c3ccccc23)c2ccccc2n1CCN1CCOCC1 | 15 nM | 15 nM | 
O=C(c1cn(CCN2CCOCC2)c2ccccc12)C1CCCc2ccccc21 (stereo not given) | 11 nM | 38 nM | 
COc1ccc(C(=O)c2c(C)n(CCN)c3ccccc23)cc1 | > 10000 nM |  | 
COc1ccc(C(=O)c2c(C)n(CCN3CCOCC3)c3cc(OC)ccc23)cc1 | > 10000 nM | 1450 nM | 
Cc1c(C(=O)c2cccc3ccccc23)c2ccc(Br)cc2n1CCN1CCOCC1 |  | 10 nM | 
Cc1ccc(C(=O)c2c(C)n(CCN3CCOCC3)c3ccccc23)cc1 | 442 nM | 1770 nM | 
Cc1c(C(=O)c2cccc(Cl)c2)c2ccccc2n1CCN1CCOCC1 |  | 1320 nM | 
COc1cccc2c(C(=O)c3cccc4ccccc34)c(C)n(CCN3CCOCC3)c12 |  | 10 nM | 
Cc1c(C(=O)c2ccnc3ccccc23)c2ccccc2n1CCN1CCOCC1 | 115 nM | 283 nM | 
Cc1ccc2c(C(=O)c3cccc4ccccc34)c(C)n(CCN3CCOCC3)c2c1 | 15 nM | 11 nM | 

Structure (SMILES) | IC50 ([1]; Mus musculus) | IC50 [2] | IC50 [1]
O=C(c1cn(CCN2CCOCC2)c2ccccc12)c1cccc2ccoc12 | 4.6 nM | 18 nM | 
O=C(c1cccc2ccccc12)c1c(Cl)n(CCN2CCOCC2)c2ccccc12 | 6.1 nM | 10 nM | 
O=C(c1ccc2ncccc2c1)c1cn(CCN2CCOCC2)c2ccccc12 | 142 nM | 491 nM | 
CCCCCc1cc(O)c2c(c1)OC(C)(C)[C@@H]1CCC(C)=C[C@@H]21 [DRONABINOL] | 4 nM |  | 
Cc1c(C(=O)c2cccc3ccccc23)c2ccccc2n1CCCN1CCOCC1 | 112 nM | 150 nM | 
CC(CN1CCOCC1)n1cc(C(=O)c2cccc3ccccc23)c2ccccc21 (stereo in doubt; -106) |  | 33 nM | 12 nM
COc1ccc(C(=O)c2c(C)n(CCN3CCOCC3)c3cc(Br)ccc23)cc1 | > 10000 nM | 515 nM | 
COc1ccc(C(=O)c2c(C)n(CCN3CCOC(C)C3)c3ccccc23)cc1 (stereo not given) | > 10000 nM |  | 
COc1ccc(C(=O)c2c(C)n(CCCCN3CCOCC3)c3ccccc23)cc1 | > 10000 nM |  | 
Cc1cccc(C(=O)c2c(C)n(CCN3CCOCC3)c3ccccc23)c1 |  | 606 nM | 
Cc1c(C(=O)c2cc3ccccc3o2)c2ccccc2n1CCN1CCOCC1 | 324 nM | 416 nM | 
Cc1c(C(=O)c2cccc3ccccc23)c2ccccc2n1CCN1CCN(C)CC1 | > 10000 nM |  | 
COc1ccc(C(=O)c2c(C)n(CCN3CCOCC3)c3c(F)cccc23)cc1 | 73 nM | 571 nM | 
Cc1c(C(=O)c2ccc(Br)c3ccccc23)c2ccccc2n1CCN1CCOCC1 | 34 nM | 6.9 nM | 
COc1ccc(C(=O)c2c(C)n(CC(=O)O)c3ccccc23)cc1 | > 10000 nM |  | 
COc1ccc(C(=O)c2c(C)n(CC(C)N3CCOCC3)c3ccccc23)cc1 (stereo not given) | > 10000 nM |  | 
CCN(CC)CCn1c(C)c(C(=O)c2ccc(OC)cc2)c2ccccc21 | > 10000 nM |  | 
Cc1c(C(=O)c2ccc3ncccc3c2)c2ccccc2n1CCN1CCOCC1 | 103 nM | 499 nM | 
COc1ccc(C(=O)c2c(C)n(CCN3CCOCC3)c3ccccc23)c2ccccc12 | 23 nM | 55 nM | 
Cc1c(C(=O)c2ccc3cccnc3c2)c2ccccc2n1CCN1CCOCC1 | 88 nM |  | 
Cc1c(C(=O)c2ccc3occc3c2)c2ccccc2n1CCN1CCOCC1 | 126 nM | 357 nM | 
O=C(c1ccc2occc2c1)c1cn(CCN2CCOCC2)c2ccccc12 | 28 nM | 138 nM | 

Structure (SMILES) | IC50 ([1]; Mus musculus) | IC50 [2] | IC50 [1]
O=C(c1cccc2ccccc12)c1cn(CCN2CCOCC2)c2ccccc12 | 6.3 nM | 7.8 nM | 
O=C(c1cccc2ccccc12)c1cn(CCN2CCOCC2)c2ccc(Br)cc12 | 19 nM | 186 nM | 
CC(Cn1cc(C(=O)c2cccc3ccccc23)c2ccccc21)N1CCOCC1 (stereo not given) | 60 nM | 124 nM | 
Cc1c(C(=O)c2cccc3ccccc23)c2ccccc2n1CCN1CCCCC1 | 66 nM | 37 nM | 
COc1ccc(C(=O)c2c(C)n(CCN3CCSCC3)c3ccccc23)cc1 |  | 622 nM | 
Cc1c(C(=O)c2coc3ccccc23)c2ccccc2n1CCN1CCOCC1 | 52 nM | 110 nM | 
Cc1cccc(C(=O)c2c(C)n(CCN3CCOCC3)c3ccccc23)c1C |  | 373 nM | 
Cc1c(C(=O)c2cccc3ccccc23)c2ccccc2n1C(C)CN1CCOCC1 (racemic; form 2) |  | 13 nM | 11 nM
Cc1ccc(C(=O)c2c(C)n(CCN3CCOCC3)c3ccccc23)cc1C |  | 140 nM | 
O=C(c1ccc2ccoc2c1)c1cn(CCN2CCOCC2)c2ccccc12 | 40 nM | 304 nM | 
O=C(c1cccc2ccccc12)c1cn(CCN2CCOCC2)c2ccc(F)cc12 | 7.3 nM | 35 nM | 
Cc1c(C(=O)c2cccc3ccoc23)c2ccccc2n1CCN1CCOCC1 | 17 nM | 71 nM | 
O=C(c1cccc2ccccc12)c1cn(CCN2CCOCC2)c2ccc(O)cc12 | 20 nM | 70 nM | 
Cc1ccc(C(=O)c2c(C)n(CCN3CCOCC3)c3ccccc23)c2ccccc12 | 9.6 nM | 5.9 nM | 
COc1ccc(C(=O)c2c(C)n(CCN3CCOCC3C)c3ccccc23)cc1 (stereo not given) | > 10000 nM |  | 
COc1ccc(C(=O)c2c(C)n(CCN3CCOCC3)c3ccccc23)cc1 [PRAVADOLINE] | 319 nM | 3150 nM | 
O=C(c1cccc2ccccc12)c1cn(CCCN2CCOCC2)c2ccccc12 | 9.8 nM | 43 nM | 
Cc1ccc2c(C(=O)c3cccc4ccccc34)cn(CCN3CCOCC3)c2c1 | 1.7 nM | 3.5 nM | 
Cc1ccc(C(=O)c2cn(CCN3CCOCC3)c3ccccc23)c2ccccc12 | 3.6 nM | 2.8 nM | 
O=C(c1ccc(O)c2ccccc12)c1cn(CCN2CCOCC2)c2ccccc12 |  | 3.4 nM | 
COc1ccc(C(=O)c2cn(CCN3CCOCC3)c3ccccc23)c2ccccc12 |  | 1.4 nM | 
COc1ccc(C(=O)c2c(C)n(CC[N+]3(C)CCOCC3)c3ccccc23)cc1 | 4310 nM |  | 
